According to ChEMBL document CHEMBL1140941 (J Med Chem, 2009):
Calls of active or inactive are those of the source. The calls are words filed in the database; no cut-off is given here.

What was measured:
Mus musculus = test: Reduction of plasma triglyceride level in western diet-induced hyperlipidemia LDLR knockout mouse model at 1 mg/kg, po administered for 6 weeks; assay type: functional; parameters: scale not given: the % may be the effect or the level left
[1] = AUC (0 to t) in CD rat at 3 mg/kg, iv; assay type: ADME, organism-based; parameters: dose 3 mg/kg, route intravenous; conditions: plasma
[2] = molecular target: T1, Peroxisome proliferator-activated receptor gamma (Homo sapiens) (UniProt P37231); test: Agonist activity at PPARgamma expressed in african green monkey CV1 cells co-expressing PPRE by luciferase reporter gene assay; assay type: functional, cell-based; conditions: CV-1
T1 sequence (whole entry): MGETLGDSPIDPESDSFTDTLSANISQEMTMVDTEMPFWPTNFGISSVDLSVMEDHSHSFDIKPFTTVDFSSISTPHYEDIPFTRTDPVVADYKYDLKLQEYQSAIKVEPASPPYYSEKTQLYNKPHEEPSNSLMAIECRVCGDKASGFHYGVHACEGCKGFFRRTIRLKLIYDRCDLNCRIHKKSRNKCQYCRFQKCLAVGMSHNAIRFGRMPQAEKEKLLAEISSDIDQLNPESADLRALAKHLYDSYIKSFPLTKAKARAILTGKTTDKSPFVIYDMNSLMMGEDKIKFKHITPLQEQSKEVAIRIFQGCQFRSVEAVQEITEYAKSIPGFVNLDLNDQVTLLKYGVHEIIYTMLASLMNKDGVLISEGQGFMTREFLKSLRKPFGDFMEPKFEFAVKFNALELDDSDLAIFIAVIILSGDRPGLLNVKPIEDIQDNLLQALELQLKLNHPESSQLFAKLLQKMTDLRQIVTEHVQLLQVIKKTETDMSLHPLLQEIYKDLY

[3] = molecular target: T1, Peroxisome proliferator-activated receptor gamma (Homo sapiens); test: Antagonist activity at PPARgamma expressed in african green monkey CV1 cells co-expressing PPRE by luciferase reporter gene assay; assay type: functional, cell-based; conditions: CV-1
Glucocorticoid receptor = Glucocorticoid receptor (Homo sapiens, UniProt P04150); test: Antagonist activity at gal-GR expressed in african green monkey CV1 cells co-expressing MH100 by luciferase reporter gene assay; assay type: functional, cell-based, CV-1
Glucocorticoid receptor, sequence (P04150 whole entry): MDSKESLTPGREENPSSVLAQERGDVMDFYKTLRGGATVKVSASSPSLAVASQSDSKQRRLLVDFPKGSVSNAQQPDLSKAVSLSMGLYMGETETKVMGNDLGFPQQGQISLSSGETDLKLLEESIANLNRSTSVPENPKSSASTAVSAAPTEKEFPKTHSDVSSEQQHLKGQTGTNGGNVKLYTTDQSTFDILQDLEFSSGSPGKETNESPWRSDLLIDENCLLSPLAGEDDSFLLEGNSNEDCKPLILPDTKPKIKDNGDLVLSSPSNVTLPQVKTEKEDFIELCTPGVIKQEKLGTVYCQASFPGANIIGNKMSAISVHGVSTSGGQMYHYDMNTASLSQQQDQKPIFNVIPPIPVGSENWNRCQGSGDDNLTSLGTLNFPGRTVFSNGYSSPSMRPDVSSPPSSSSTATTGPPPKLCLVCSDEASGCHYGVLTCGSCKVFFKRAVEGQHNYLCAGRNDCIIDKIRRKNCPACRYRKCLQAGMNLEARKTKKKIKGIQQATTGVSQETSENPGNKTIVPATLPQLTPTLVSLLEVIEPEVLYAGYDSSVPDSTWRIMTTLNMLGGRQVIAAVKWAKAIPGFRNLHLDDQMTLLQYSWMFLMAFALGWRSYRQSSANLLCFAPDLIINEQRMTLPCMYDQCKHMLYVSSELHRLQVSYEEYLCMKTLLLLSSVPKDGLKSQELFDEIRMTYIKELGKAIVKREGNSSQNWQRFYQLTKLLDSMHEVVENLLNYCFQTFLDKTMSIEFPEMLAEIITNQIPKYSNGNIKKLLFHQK

[4] = molecular target: T2, Bile acid receptor (Homo sapiens) (UniProt Q96RI1); test: Agonist activity at human FXR expressed in african green monkey CV1 cells co-expressing ECRE with RXR co-factor up to 10 uM by luciferase reporter gene assay relative to CDCA; assay type: functional, cell-based; conditions: CV-1
T2 sequence (whole entry): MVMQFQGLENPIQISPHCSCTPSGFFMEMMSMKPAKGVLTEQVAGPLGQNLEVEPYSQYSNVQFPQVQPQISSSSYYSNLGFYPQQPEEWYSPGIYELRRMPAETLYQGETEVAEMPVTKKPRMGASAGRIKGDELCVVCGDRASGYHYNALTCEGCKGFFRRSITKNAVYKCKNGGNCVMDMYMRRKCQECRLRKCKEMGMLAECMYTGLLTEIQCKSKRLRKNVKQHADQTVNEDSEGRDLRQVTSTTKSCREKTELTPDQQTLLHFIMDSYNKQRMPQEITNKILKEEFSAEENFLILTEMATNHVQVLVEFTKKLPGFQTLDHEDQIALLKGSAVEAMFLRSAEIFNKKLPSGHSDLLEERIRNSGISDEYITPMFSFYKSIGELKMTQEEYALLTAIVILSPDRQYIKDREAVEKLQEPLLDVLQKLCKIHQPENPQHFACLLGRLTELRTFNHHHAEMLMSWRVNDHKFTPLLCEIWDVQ

[5] = molecular target: Oxysterols receptor LXR-beta (Homo sapiens) (UniProt P55055); test: Agonist activity at LXRbeta expressed in african green monkey CV1 cells co-expressing LXRE by luciferase reporter gene assay; assay type: functional, cell-based; conditions: CV-1
Oxysterols receptor LXR-beta (Homo sapiens), sequence (P55055 whole entry): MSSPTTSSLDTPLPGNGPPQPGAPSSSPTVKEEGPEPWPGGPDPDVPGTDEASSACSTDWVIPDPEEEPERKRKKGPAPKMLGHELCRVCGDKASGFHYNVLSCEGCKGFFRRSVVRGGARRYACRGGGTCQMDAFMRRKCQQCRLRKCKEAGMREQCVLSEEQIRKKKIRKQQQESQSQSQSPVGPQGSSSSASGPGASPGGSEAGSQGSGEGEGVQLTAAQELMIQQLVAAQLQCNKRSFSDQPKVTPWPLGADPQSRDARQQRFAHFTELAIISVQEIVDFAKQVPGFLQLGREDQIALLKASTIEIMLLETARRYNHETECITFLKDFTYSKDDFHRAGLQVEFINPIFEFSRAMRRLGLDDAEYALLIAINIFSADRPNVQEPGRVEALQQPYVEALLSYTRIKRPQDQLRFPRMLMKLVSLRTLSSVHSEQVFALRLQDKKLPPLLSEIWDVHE

[6] = Clearance in CD rat at 3 mg/kg, iv; assay type: ADME, organism-based; parameters: dose 3 mg/kg, route intravenous; conditions: in vivo
[7] = molecular target: Retinoic acid receptor gamma (Homo sapiens) (UniProt P13631); test: Agonist activity at gal-RARgamma expressed in african green monkey CV1 cells co-expressing MH100 by luciferase reporter gene assay; assay type: functional, cell-based; conditions: CV-1
Retinoic acid receptor gamma (Homo sapiens), sequence (P13631 whole entry): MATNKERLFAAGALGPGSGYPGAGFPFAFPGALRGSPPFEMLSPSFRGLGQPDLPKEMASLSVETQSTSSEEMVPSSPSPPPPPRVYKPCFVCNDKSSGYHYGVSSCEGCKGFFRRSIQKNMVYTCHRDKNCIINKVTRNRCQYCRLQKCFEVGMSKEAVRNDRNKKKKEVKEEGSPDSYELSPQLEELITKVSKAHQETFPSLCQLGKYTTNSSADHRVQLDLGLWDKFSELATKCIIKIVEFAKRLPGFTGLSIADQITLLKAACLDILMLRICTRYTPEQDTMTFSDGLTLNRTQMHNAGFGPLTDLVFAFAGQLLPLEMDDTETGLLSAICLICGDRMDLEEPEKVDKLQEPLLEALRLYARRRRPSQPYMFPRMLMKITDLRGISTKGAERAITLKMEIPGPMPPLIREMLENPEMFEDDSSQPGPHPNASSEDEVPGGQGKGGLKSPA

AUC(0-t) [1]: 19.1 µM·h
Activity [2]: inactive
Activity [3]: inactive
IC50 (Glucocorticoid receptor): 10 µM
Efficacy [4]: 149%
Activity [5]: inactive
clearance [6]: 5.68 mL/min/kg
Activity [7]: inactive
SMILES: CC(C)OC(=O)C1=CN(C(=O)c2ccc(F)c(F)c2)CC(C)(C)c2c1[nH]c1ccccc21 [TUROFEXORATE ISOPROPYL]
Activity (Mus musculus): 19%
